# Laboratory results from ChEMBL document CHEMBL1201862, “PubChem BioAssay data set” (2004).
# Active and inactive are the calls of the source.
# Columns and labels:
# HEK293 [1] = experiment: cells; type: functional, cell-based; details: Homo sapiens
# Streptococcus = experiment: GAS UMAA2166 growth inhibition – luminescence, BacTiterGlo, counter-screen for streptokinase expression inhibitor project, dose response (AID 1915); type: functional, organism-based;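 further: potency for reduction of bacterial viability or growth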
# Streptokinase A = molecular target: T1, Streptokinase A (Streptococcus pyogenes serotype M1, UniProt P10520); experiment: viability-normalized secreted streptokinase activity reduction – plasminogen activation absorbance, OD405, dose response (AID 1914); type: functional, Streptococcus pyogenes M1 GAS;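 further: secreted streptokinase activity via plasminogen activation per viability signal from cell pellet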
# T1 sequence (P10520 whole entry): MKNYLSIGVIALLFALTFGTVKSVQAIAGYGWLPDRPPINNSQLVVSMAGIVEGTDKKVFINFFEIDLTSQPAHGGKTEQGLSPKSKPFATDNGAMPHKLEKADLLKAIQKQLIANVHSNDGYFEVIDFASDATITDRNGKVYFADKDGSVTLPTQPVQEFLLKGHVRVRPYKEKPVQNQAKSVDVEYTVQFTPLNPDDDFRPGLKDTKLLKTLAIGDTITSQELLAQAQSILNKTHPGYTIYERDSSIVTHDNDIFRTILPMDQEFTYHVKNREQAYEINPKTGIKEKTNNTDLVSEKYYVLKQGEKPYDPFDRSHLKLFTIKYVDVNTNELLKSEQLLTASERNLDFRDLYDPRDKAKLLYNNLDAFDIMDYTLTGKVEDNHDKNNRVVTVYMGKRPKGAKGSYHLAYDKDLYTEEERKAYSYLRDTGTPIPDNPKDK
# HEK293 [2] = experiment: inhibition of NOD1-driven NF-kB reporter – cell-based, luminescence, uHTS, primary screen (AID 1578); type: functional; details: Homo sapiens
# HEK293 [3] = experiment: cells; type: functional, cell-based; details: Homo sapiens; remark: listed apart in the source
# Protein skinhead-1 = molecular target: T2, Protein skinhead-1 (Caenorhabditis elegans, UniProt P34707); type: functional
# T2 sequence (P34707 whole entry): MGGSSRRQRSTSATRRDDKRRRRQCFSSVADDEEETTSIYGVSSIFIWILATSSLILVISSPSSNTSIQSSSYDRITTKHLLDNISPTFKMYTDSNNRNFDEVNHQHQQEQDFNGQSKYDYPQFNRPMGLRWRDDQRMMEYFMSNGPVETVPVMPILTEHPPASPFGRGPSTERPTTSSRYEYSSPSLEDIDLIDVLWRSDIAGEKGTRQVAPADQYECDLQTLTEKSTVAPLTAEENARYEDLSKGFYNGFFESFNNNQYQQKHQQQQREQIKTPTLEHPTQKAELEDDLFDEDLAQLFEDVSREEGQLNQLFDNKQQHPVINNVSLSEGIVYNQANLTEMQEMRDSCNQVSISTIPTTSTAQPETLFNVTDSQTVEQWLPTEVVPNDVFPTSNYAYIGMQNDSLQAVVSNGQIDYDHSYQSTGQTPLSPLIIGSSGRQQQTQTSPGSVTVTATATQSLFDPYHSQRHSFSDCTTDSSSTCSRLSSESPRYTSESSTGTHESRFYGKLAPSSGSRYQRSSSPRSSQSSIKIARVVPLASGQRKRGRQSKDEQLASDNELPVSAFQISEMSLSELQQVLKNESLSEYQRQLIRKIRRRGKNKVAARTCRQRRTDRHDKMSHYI
# [4] = tested on: Streptococcus sp. 'group A'; experiment: Streptococcus pyogenes SK(-)GAS viability under kanamycin – luminescence, BacTiterGlo, confirmation, counter-screen for streptokinase expression inhibitor project, dose response (AID 1900); type: functional, organism-based
# HEK293 [5] = experiment: NOD2 signaling inhibitors in MDP-stimulated cells, cell-based, uHTS, luminescence (AID 2001); type: functional; details: Homo sapiens
# [6] = molecular target: Nucleotide-binding oligomerization domain-containing protein 2 (Homo sapiens, UniProt Q9HC29); experiment: inhibition of NOD2-driven NF-kB reporter – cell-based, luminescence, uHTS, HEK293 (AID 1566); type: functional
# HEK293 [7] = experiment: cells; type: functional, cell-based; details: Homo sapiens; remark: listed apart in the source
# [8] = molecular target: Cyclin-dependent kinase 5/CDK5 activator 1 (Homo sapiens, UniProt Q00535); experiment: blockade of human CDK5 activity – biochemical, cherry-picked samples, set 2, dose response (AID 504545)
# Cyclin-dependent kinase 5/CDK5 activator 1, sequence (Q00535 whole entry): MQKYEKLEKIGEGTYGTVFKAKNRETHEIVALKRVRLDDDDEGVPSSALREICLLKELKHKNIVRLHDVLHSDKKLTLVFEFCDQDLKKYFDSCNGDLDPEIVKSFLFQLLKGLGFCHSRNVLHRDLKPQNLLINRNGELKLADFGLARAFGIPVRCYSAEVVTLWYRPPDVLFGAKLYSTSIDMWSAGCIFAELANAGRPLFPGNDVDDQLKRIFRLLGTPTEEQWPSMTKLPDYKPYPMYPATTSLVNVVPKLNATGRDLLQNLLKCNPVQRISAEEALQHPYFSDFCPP
# Cyclin-dependent kinase 5/CDK5 activator 1, sequence (Q15078 whole entry, further chain): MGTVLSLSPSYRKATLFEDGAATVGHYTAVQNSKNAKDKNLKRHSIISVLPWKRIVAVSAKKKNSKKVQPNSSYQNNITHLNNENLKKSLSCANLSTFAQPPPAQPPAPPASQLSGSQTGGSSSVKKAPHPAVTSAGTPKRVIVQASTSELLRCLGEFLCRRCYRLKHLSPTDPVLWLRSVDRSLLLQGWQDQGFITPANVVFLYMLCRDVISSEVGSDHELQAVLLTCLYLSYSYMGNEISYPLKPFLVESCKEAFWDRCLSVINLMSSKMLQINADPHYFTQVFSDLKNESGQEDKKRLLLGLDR
# [9] = molecular target: Luciferin 4-monooxygenase (Photinus pyralis, UniProt P08659); experiment: inhibition of purified Photinus pyralis luciferase – biochemical, luminescence, dose response (AID 1891)
# Luciferin 4-monooxygenase, sequence (P08659 whole entry): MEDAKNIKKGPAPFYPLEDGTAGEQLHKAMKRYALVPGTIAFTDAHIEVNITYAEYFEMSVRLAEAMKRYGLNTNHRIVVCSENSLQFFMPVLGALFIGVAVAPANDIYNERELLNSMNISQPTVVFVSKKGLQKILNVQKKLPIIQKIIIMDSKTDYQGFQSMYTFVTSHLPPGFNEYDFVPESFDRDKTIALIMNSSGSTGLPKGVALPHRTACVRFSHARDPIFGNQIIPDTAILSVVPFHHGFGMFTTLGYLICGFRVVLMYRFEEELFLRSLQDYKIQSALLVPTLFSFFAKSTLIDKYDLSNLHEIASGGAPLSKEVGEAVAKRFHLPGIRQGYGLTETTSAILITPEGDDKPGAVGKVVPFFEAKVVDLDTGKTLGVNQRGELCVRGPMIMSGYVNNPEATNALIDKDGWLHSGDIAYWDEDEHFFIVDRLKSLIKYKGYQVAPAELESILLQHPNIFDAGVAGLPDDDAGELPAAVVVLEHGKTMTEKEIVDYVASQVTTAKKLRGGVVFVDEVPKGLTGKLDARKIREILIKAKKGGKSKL
# H4 = experiment: Luminescence Cell-Based Dose Response HTS to Identify Activators of 5'UTR Stem-Loop Driven Prion Protein mRNA Translation in H4 Neuroglioblastoma Cells. [Related pubchem assays: 1829 (Project Summary), 1814 (Primary HTS)]; type: functional; details: Homo sapiens
# [10] = Luminescence Cell-Based Dose Confirmation HTS to Identify Activators of 5'UTR Stem-Loop Driven Alpha-Synuclein mRNA Translation in H4 Neuroglioblastoma Cells. [Related pubchem assays: 1829 (Project Summary), 1814 (Primary HTS)]; type: functional
# [11] = molecular target: G-protein coupled receptor 55 (Homo sapiens, UniProt Q9Y2T6); experiment: selective activators of receptor GPR55 – imaging, U2OS cells, beta-arrestin-GFP redistribution, primary screen (AID 1961); type: functional
# G-protein coupled receptor 55, sequence (Q9Y2T6 whole entry): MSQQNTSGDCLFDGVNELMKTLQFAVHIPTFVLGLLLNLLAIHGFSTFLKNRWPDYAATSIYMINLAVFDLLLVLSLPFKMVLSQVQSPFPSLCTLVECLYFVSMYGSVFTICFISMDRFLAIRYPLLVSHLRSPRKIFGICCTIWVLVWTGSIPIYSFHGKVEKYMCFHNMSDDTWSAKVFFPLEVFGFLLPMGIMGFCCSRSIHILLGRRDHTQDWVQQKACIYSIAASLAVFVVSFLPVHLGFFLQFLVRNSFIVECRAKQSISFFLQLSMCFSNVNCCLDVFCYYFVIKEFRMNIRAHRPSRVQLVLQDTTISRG
# [12] = Luminescence Cell-Based Dose Response HTS to Identify Activators of Luciferase Translation or Activity in H4 […] Cells. [Related pubchem assays: 1829 (Project Summary), 1814 (Primary HTS)]; type: functional
# [13] = molecular target: T3, Long-chain-fatty-acid--AMP ligase FadD28 (Mycobacterium tuberculosis, UniProt P9WQ59); experiment: Fluorescence polarization aasay to screen for inhibitors that compete for the binding of FadD28 to a bisubstrate Measured in Biochemical System Using Plate Reader - 2147-01_Inhibitor_Dose_CherryPick_Activity.; type: functional, Mycobacterium tuberculosis H37Rv
# T3 sequence (P9WQ59 whole entry): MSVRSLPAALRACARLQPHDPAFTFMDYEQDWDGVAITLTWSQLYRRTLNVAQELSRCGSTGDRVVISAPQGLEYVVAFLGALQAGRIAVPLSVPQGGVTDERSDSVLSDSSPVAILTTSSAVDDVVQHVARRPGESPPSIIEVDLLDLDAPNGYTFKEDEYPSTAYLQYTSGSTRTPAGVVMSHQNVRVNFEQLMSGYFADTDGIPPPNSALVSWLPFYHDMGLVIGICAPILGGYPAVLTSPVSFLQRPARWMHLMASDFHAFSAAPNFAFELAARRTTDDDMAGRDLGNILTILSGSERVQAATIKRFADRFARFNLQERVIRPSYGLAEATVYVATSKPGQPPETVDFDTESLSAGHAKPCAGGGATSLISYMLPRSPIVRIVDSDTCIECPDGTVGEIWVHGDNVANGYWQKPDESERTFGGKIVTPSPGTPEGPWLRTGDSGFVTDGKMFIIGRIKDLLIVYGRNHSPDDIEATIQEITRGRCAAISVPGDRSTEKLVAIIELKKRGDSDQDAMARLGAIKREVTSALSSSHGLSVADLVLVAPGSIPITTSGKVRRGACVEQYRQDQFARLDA
# [14] = molecular target: Voltage-dependent T-type calcium channel subunit alpha-1H (Homo sapiens, UniProt O95180); type: functional;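 further: channel activity triggered by adding a high calcium stimulation buffer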
# Voltage-dependent T-type calcium channel subunit alpha-1H, sequence (O95180 whole entry): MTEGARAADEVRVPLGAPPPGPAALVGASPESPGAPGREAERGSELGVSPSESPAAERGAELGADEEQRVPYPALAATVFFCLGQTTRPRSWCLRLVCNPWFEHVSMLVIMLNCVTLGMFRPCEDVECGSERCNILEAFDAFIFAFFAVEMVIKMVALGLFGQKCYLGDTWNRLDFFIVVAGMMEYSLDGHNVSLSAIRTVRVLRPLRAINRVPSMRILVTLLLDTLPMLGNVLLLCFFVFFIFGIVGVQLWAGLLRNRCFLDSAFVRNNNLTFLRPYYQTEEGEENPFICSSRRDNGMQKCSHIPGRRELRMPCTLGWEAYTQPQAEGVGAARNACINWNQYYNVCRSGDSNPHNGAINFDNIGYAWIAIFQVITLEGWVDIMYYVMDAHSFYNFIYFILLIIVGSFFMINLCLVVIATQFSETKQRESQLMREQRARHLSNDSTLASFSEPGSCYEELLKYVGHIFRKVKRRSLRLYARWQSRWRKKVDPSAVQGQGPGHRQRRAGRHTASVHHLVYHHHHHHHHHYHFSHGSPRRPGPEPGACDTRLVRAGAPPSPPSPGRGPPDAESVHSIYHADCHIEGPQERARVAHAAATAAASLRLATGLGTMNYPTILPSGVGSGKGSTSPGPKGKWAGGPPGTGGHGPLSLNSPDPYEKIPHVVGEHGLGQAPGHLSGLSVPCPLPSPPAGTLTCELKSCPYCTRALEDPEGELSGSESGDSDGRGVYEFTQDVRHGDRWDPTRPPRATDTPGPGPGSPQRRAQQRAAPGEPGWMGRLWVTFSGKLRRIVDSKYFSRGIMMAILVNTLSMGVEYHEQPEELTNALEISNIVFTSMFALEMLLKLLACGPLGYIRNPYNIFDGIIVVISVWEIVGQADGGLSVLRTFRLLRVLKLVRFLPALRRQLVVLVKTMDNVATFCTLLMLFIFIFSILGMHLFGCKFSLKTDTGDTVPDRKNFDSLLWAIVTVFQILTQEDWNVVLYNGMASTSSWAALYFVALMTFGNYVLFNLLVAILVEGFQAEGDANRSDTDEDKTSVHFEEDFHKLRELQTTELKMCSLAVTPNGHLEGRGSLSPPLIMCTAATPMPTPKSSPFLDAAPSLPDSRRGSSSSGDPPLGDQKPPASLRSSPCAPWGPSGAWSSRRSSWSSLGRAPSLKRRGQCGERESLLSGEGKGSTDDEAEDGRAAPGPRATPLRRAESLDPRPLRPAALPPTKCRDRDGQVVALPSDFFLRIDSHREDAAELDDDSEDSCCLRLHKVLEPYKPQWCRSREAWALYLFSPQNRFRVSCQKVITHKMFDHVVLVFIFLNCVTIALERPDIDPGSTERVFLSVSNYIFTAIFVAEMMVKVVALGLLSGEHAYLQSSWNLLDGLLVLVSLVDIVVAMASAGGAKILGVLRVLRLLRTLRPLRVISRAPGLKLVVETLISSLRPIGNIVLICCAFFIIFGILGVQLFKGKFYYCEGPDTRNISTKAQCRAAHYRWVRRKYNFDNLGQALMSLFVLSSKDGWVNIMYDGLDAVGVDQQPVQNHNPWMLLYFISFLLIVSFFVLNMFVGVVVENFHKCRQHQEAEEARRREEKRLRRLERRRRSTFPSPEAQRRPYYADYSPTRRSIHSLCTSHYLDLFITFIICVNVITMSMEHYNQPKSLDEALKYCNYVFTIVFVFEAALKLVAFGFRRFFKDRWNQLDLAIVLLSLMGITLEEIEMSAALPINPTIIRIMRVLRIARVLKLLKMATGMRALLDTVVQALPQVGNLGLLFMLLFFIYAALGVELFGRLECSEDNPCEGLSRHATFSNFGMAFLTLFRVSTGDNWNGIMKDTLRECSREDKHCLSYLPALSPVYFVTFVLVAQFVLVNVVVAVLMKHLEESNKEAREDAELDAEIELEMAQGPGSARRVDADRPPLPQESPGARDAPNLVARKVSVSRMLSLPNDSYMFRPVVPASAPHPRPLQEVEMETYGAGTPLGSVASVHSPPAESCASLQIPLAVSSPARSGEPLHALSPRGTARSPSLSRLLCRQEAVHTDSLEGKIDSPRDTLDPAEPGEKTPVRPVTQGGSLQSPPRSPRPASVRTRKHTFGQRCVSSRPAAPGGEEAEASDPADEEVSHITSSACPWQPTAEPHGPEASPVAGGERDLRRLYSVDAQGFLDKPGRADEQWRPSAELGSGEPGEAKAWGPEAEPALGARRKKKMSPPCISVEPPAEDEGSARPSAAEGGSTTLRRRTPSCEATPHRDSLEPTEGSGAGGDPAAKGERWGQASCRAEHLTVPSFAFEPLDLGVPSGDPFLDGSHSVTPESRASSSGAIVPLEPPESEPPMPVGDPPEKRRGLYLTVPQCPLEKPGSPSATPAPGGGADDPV
# [15] = molecular target: G2/mitotic-specific cyclin-B1 (Homo sapiens, UniProt P14635); experiment: HeLa cell cycle G2/M accumulation – FACS, mechanism study for Wee1 degradation inhibitor project, late-stage follow-up, panel member Cyclin B Degradation (AID 2088)
# G2/mitotic-specific cyclin-B1, sequence (P14635 whole entry): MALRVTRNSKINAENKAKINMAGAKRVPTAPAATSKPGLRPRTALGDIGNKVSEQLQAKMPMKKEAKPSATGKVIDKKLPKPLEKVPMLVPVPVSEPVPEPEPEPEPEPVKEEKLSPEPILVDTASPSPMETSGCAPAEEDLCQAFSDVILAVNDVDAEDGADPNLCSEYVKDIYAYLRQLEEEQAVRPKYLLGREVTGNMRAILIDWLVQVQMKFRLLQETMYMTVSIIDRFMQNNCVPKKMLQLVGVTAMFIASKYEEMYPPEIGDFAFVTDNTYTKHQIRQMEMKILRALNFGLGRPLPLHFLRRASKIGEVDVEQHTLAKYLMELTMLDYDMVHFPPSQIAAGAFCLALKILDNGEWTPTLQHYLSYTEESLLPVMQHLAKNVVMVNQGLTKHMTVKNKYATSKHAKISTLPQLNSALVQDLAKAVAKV
# Wee1-like protein kinase = Wee1-like protein kinase (Homo sapiens, UniProt P30291); experiment: HeLa cell cycle G2/M accumulation – FACS, mechanism study for Wee1 degradation inhibitor project, late-stage follow-up, panel member Wee1 Degradation (AID 2088)
# Wee1-like protein kinase, sequence (P30291 whole entry): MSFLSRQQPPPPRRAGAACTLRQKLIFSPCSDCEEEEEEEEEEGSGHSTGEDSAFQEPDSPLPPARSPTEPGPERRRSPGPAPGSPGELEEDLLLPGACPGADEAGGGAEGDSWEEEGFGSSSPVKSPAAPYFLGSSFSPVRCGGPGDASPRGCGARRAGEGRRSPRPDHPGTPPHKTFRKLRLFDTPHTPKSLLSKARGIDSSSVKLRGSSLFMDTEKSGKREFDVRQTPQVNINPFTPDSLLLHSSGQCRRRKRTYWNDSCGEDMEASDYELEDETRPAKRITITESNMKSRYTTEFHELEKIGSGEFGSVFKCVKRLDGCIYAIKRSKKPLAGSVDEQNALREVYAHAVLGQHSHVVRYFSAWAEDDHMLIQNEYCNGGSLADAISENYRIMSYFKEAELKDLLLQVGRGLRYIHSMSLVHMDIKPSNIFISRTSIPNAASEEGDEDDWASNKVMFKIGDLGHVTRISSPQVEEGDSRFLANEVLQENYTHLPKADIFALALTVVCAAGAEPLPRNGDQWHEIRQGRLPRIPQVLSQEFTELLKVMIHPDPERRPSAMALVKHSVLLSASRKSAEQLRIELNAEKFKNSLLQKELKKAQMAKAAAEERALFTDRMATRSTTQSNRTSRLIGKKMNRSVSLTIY
# [16] = molecular target: Eukaryotic translation initiation factor 4E (Mus musculus, UniProt P63073); experiment: blockers of eIF4G binding by eIF4E – biochemical, TR-FRET, dose response (AID 855); type: functional;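 further: potency for disrupting eIF4E binding to eIF4GI seen as loss of FRET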
smiles,measurement,setting,value
O=C(/C=C\c1ccco1)Nc1nc(-c2ccc3ccccc3c2)cs1,IC50,HEK293 [1],> 20 µM (inactive)
same,EC50,Streptococcus,73.7 µM (active)
same,EC50,Streptokinase A,> 150 µM (not active)
same,EC50,HEK293 [2],> 20 µM (inactive)
same,IC50,HEK293 [3],7.24 µM (active)
same,IC50,Protein skinhead-1,> 100 µM (inactive)
same,EC50,[4],7.52 µM (active)
same,IC50,HEK293 [5],3.88 µM (inactive)
same,EC50,[6],> 20 µM (inactive)
same,IC50,HEK293 [7],3.56 µM (active)
COc1cccc(C(=O)ON=C(N)c2ccccn2)c1,AC50,[8],12.9 µM (active)
same,EC50,[9],2.07 µM (active)
CC1=NN(c2ccc(C(=O)O)cc2)C(=O)/C1=C/c1ccc(-c2ccccc2F)o1,EC50,H4,> 120 µM (not active)
same,EC50,[10],> 120 µM (not active)
same,EC50,[11],21.3 µM (inactive)
same,EC50,[12],> 120 µM (not active)
CC(C)n1cnc2c(Nc3ccc(C(=O)O)cc3)nc(Cl)nc21,AC50,[8],22.2 µM (active)
CC(C)(C)c1csc(NC(=O)Cn2c(=O)oc3ccccc32)n1,AC50,[13],> 100 µM (inactive)
same,EC50,[14],1.5 µM (active)
c1ccc(-c2cc3c(ccc4nonc43)[nH]2)cc1,EC50,[15],> 49.7 µM (inactive)
same,EC50,Wee1-like protein kinase,> 49.7 µM (inactive)
Cn1c(=O)cc(OCCCC(=O)Nc2cccc(Cl)c2)c2ccccc21,EC50,[15],> 49.7 µM (inactive)
same,EC50,Wee1-like protein kinase,> 49.7 µM (inactive)
C[N+](C)(C)c1ccc(/C=N/Nc2nc(Cl)c(C#N)c(Cl)c2Cl)cc1,EC50,Streptococcus,> 150 µM (not active)
same,EC50,Streptokinase A,> 150 µM (not active)
same,IC50,[16],> 64 µM (inactive)
same,EC50,[4],> 150 µM (not active)
